Experimental data from patent US6699498B1, “Transdermal therapeutic systems having improved stability and their production” (LTS Lohmann Therapie-Systeme AG, priority 1999, dated 2004).

Experiments:
[1] = Peroxide number (PON) of raw materials; type: physicochemical; settings: raw material following approximately 6 months' storage at room temperature
Description: The peroxide content is commonly expressed by means of the so-called peroxide number PON, which indicates the amount of milliequivalents of active oxygen per kg of substance. There are various methods of determining the peroxide number. The most customary is to react a defined amount of substance in a chloroform/glacial acetic acid solution with an excess of iodide ions and then to back-titrate the resultant iodine using sodium thiosulfate. A less common method, which is restricted to aqueous solutions, is to react the substance with titanium(IV) ions and to measure the resultant peroxo complex by photometry. A semiquantitative test for peroxides which is particularly easy to implement is carried out using commercial […].
The table below lists the measured peroxide numbers of some exemplary substances used to produce reservoir and matrix systems, following approximately 6 months' storage at room temperature. The peroxide numbers were measured by the two first-mentioned methods.

[2] = Test reaction of active substance with t-butyl hydroperoxide under reflux; type: physicochemical; settings: chloroform; for Identified degradation product in reaction with t-butyl hydroperoxide: reflux 6 hours
Description: To determine the sensitivity of the active substance to oxidation reactions with hydroperoxides, an easily implemented test reaction has been developed. For this purpose, the active substance in chloroform or another appropriate solvent is reacted with t-butyl hydroperoxide under reflux. If oxidative degradation products of the active substance are found in this reaction mixture, they can be attributed to the reaction with hydroperoxide. Often, degradation of the active substance is also evident very simply from a discoloration of the test solution. The practical conclusion to be drawn from a positive outcome of the test reaction is that when formulating a transdermal system using this active substance the auxiliaries used should include only those which are substantially free from hydroperoxides.
80 ml of chloroform and 1 g of t-butyl hydroperoxide are added to 0.5 g of the active substance and this system is heated under reflux with stirring for 6 hours. The reaction mixture is subsequently assessed for its color and analyzed using an appropriate chromatographic method for degradation products formed.

Structure (SMILES)	PON (peroxide number) [1]	Identified degradation product in reaction with t-butyl hydroperoxide [2]	also measured
CCOCCOCCO [Diethylene glycol monoethyl ether]	120 milliequivalents of active oxygen per kg of substance	–	–
C=C(C)[C@H]1CC=C(C)CC1 [Limonene]	15 milliequivalents of active oxygen per kg of substance	–	–
CCCN(CCc1cccs1)[C@H]1CCc2c(O)cccc2C1 [N-0923 base]	–	1,2-dihydronaphth-8-ol	–
CCCCCCCC/C=C\CCCCCCCCO [Oleyl alcohol]	50 milliequivalents of active oxygen per kg of substance	–	–
Cc1cc2c(OCC(CNC(C)(C)C)OC(=O)c3ccccc3)cccc2[nH]1 (stereo not drawn) [bopindolol]	–	–	Color of reaction mixture with t-butyl hydroperoxide ([2]; reflux): yellowish discoloration which then becomes strongly brown
CCCN1C[C@H](CSC)C[C@@H]2c3cccc4[nH]cc(c34)C[C@H]21 [pergolide]	–	Oxidation of the sulfide sulfur to the sulfoxide	–
